Data: ChEMBL document CHEMBL1201862, “PubChem BioAssay data set” (2004)
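Compound exposure: 48 hours, 5 concentrations, 96-well plates. GI50 marks 50% less growth.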 Activity calls are given as the source filed them. Rule as the data show it: active = GI50 up to about 1.1 µM and inactive = higher.

Legend:
Experiment in all cases: growth of human tumour cells (NCI), 48 h
K562 = test system: K562
T47D = test system: T47D
UO-31 = test system: UO-31
CAKI-1 = test system: CAKI-1
HL-60 = test system: HL-60
786-0 = test system: 786-0
HCT-116 = test system: HCT-116
HCT-15 = test system: HCT-15
MDA-N = test system: MDA-N
MDA-MB-435 = test system: MDA-MB-435
SF-268 = test system: SF-268
OVCAR-8 = test system: OVCAR-8
EKVX = test system: EKVX
SW-620 = test system: SW-620
KM12 = test system: KM12
SK-MEL-2 = test system: SK-MEL-2
SR = test system: SR
HCC 2998 = test system: HCC 2998
SK-MEL-28 = test system: SK-MEL-28
UACC-62 = test system: UACC-62
RPMI-8226 = test system: RPMI-8226
A549 = test system: A549
SK-OV-3 = test system: SK-OV-3
A498 = test system: A498
SNB-19 = test system: SNB-19
ACHN = test system: ACHN
BT-549 = test system: BT-549
OVCAR-5 = test system: OVCAR-5
Hs-578T = test system: Hs-578T
NCI-H23 = test system: NCI-H23
OVCAR-3 = test system: OVCAR-3
M14 = test system: M14
SF-295 = test system: SF-295
MDA-MB-231 = test system: MDA-MB-231
MOLT-4 = test system: MOLT-4
MCF7 = test system: MCF7
HT-29 = test system: HT-29
SN12C = test system: SN12C
Malme-3M = test system: Malme-3M
SNB-75 = test system: SNB-75
COLO 205 = test system: COLO 205
NCI-H522 = test system: NCI-H522
SK-MEL-5 = test system: SK-MEL-5
U-251 = test system: U-251
CCRF-CEM = test system: CCRF-CEM
NCI/ADR-RES = test system: NCI/ADR-RES
UACC-257 = test system: UACC-257
OVCAR-4 = test system: OVCAR-4
IGROV-1 = test system: IGROV-1
TK-10 = test system: TK-10
SF-539 = test system: SF-539
PC-3 = test system: PC-3
NCI-H460 = test system: NCI-H460
LOX IMVI = test system: LOX IMVI
DU-145 = test system: DU-145
HOP-62 = test system: HOP-62
NCI-H226 = test system: NCI-H226

O=C1OC(C2Cc3ccc4c(c3C2=O)CCCC4)c2ccccc21 (configuration not stated)
GI50 (K562): 21.8 µM (inactive) | GI50 (T47D): 63 µM (inactive) | GI50 (UO-31): 50 µM (inactive) | GI50 (CAKI-1): 69.3 µM (inactive) | GI50 (HL-60): 71.3 µM (inactive) | GI50 (786-0): 50.8 µM (inactive) | GI50 (HCT-116): 40 µM (inactive) | GI50 (HCT-15): 28.4 µM | GI50 (MDA-N): 34.8 µM (inactive) | GI50 (MDA-MB-435): 38.8 µM (inactive) | GI50 (SF-268): 49.2 µM (inactive) | GI50 (OVCAR-8): 43.9 µM (inactive) | GI50 (EKVX): 44.6 µM (inactive) | GI50 (SW-620): 29.7 µM (inactive) | GI50 (KM12): 44 µM (inactive) | GI50 (SK-MEL-2): 24.5 µM (inactive) | GI50 (SR): > 10 µM (inactive) | GI50 (HCC 2998): 30.8 µM (inactive) | GI50 (SK-MEL-28): 52.5 µM (inactive) | GI50 (UACC-62): 23.7 µM (inactive) | GI50 (RPMI-8226): 42.5 µM (inactive) | GI50 (A549): 35.9 µM (inactive) | GI50 (SK-OV-3): 73.6 µM (inactive) | GI50 (A498): 16.8 µM (inactive) | GI50 (SNB-19): 44.5 µM (inactive) | GI50 (ACHN): 44.6 µM (inactive) | GI50 (BT-549): 54.8 µM (inactive) | GI50 (OVCAR-5): > 100 µM (inactive) | GI50 (Hs-578T): 18 µM (inactive) | GI50 (NCI-H23): 42.7 µM (inactive) | GI50 (OVCAR-3): 34.3 µM (inactive) | GI50 (M14): 50.4 µM (inactive) | GI50 (SF-295): 40.1 µM (inactive) | GI50 (MDA-MB-231): 36.2 µM (inactive) | GI50 (MOLT-4): 16.8 µM (inactive) | GI50 (MCF7): 33.9 µM (inactive) | GI50 (HT-29): 36.6 µM (inactive) | GI50 (SN12C): 28.5 µM (inactive) | GI50 (Malme-3M): 24 µM (inactive) | GI50 (SNB-75): 65.6 µM (inactive) | GI50 (COLO 205): 46.8 µM (inactive) | GI50 (NCI-H522): 48.4 µM (inactive) | GI50 (SK-MEL-5): 33.4 µM (inactive) | GI50 (U-251): 39.6 µM (inactive) | GI50 (CCRF-CEM): 15.3 µM (inactive) | GI50 (NCI/ADR-RES): 46 µM (inactive) | GI50 (UACC-257): 52.2 µM (inactive) | GI50 (OVCAR-4): 24.8 µM (inactive) | GI50 (IGROV-1): 44.3 µM (inactive) | GI50 (TK-10): 73.5 µM (inactive) | GI50 (SF-539): 24.7 µM (inactive) | GI50 (PC-3): 26.4 µM (inactive) | GI50 (NCI-H460): 27.3 µM (inactive) | GI50 (LOX IMVI): 25.5 µM (inactive) | GI50 (DU-145): 74.3 µM (inactive) | GI50 (HOP-62): 74.1 µM (inactive) | GI50 (NCI-H226): 20.6 µM (inactive)
